Among the data in ChEMBL document CHEMBL2406913, “First synthesis and biological evaluation of 4-amino-2-aryl-6,9-dichlorobenzo[g]pteridines as inhibitors of TNF-α and IL-6” (Eur J Med Chem, 2013) are IC50, inhibition and Activity values, retold here.

SMILES strings stand for the structures.

In series [1] the test system is HL-60. As to the kind of experiment: Antiinflammatory activity in human HL-60 derived macrophage-like cells assessed as inhibition of LPS-induced IL-6 production treated 30 mins before LPS stimulation measured after 24 hrs by ELISA. It counts as functional, cell-based.
Series [2] concerns HL-60. As to the kind of experiment: Antiinflammatory activity in human HL-60 derived macrophage-like cells assessed as inhibition of LPS-induced IL-6 production at 50 uM treated 30 mins before LPS stimulation measured after 24 hrs by ELISA. The class given is functional.
Series [3] has as its system HL-60. Nature of the series: Cytotoxicity against human HL-60 derived macrophage-like cells at 50 uM after 1 hr by MTT assay. The class given is cell-based. Particulars: hl-60, 1 h.
The test system of series [4] is HL-60. Nature of the series: Antiinflammatory activity in human HL-60 derived macrophage-like cells assessed as inhibition of LPS-induced TNFalpha production at 50 uM treated 30 mins before LPS stimulation measured after 24 hrs by ELISA. It counts as functional.
Series [5] has as its system HL-60. Nature of the series: Antiinflammatory activity in human HL-60 derived macrophage-like cells assessed as inhibition of LPS-induced TNFalpha production treated 30 mins before LPS stimulation measured after 24 hrs by ELISA. The class given is functional, cell-based.

In the case of `Nc1nc(-c2ccc(Cl)cc2)nc2nc3c(Cl)ccc(Cl)c3nc12`, the IC50 in the series with HL-60 [1] came out at 46.9 µM. The inhibition at 50 µM worked out at 54.3% in the series with HL-60 [2] and 6.7% in the series on HL-60 [4]. This compound registered an Activity in the series with HL-60 [3] of 2.5%.

Consider `Nc1nc(-c2cccc([N+](=O)[O-])c2)nc2nc3c(Cl)ccc(Cl)c3nc12`, for which the inhibition at 50 µM amounted to 41.3% with HL-60 [2] and 0% with HL-60 [4]. The Activity with HL-60 [3] stood at 1.5%.

With `Nc1nc(-c2ccc(C(F)(F)F)cc2)nc2nc3c(Cl)ccc(Cl)c3nc12`, the IC50 was determined as 35.4 µM in the series on HL-60 [1] and 8.7 µM with HL-60 [5]. Besides, the inhibition at 50 µM was 83% in the series with HL-60 [2] and 67.2% in the series on HL-60 [4]. Also, the Activity with HL-60 [3] is 0%.

As to `Nc1nc(-c2ccccc2)nc2nc3c(Cl)ccc(Cl)c3nc12`, the IC50 with HL-60 [1] was 34.4 µM; in the series on HL-60 [5], 35.9 µM. For the same compound, the results for the inhibition at 50 µM in the series with HL-60 [2] and in the series with HL-60 [4] were 73.8% and 75.2%, respectively. In the series with HL-60 [3], this compound registered an Activity of 13%.

Take `Cc1cccc(-c2nc(N)c3nc4c(Cl)ccc(Cl)c4nc3n2)c1`: the IC50 in the series with HL-60 [1] turned out to be 25.7 µM; with HL-60 [5], 6 µM. Besides, the inhibition at 50 µM with HL-60 [2] was 95.1%; in the series with HL-60 [4] it was 100%. The same compound gave an Activity in the series with HL-60 [3] of 0.2%.

For the compound `C[S+]([O-])c1ccc(-c2nc(-c3ccncc3)c(-c3ccc(F)cc3)[nH]2)cc1` (stereo unspecified) [SB-203580], the inhibition at 50 µM in the series on HL-60 [2] was found to be 8.4%; in the series with HL-60 [4], 68.1%. In addition, the Activity in the series on HL-60 [3] is reported as 0%. The IC50 with HL-60 [5] worked out at 8.6 µM.

Take `Cc1ccc(-c2nc(N)c3nc4c(Cl)ccc(Cl)c4nc3n2)cc1`: the IC50 in the series on HL-60 [1] turned out to be 25.2 µM; in the series with HL-60 [5], 7.4 µM. The inhibition at 50 µM in the series with HL-60 [2] turned out to be 95.4%; in the series with HL-60 [4] it was 87.4%. For the same compound, in the series on HL-60 [3], the Activity is listed as 3.9%.

As to `Nc1ccc(-c2nc(N)c3nc4c(Cl)ccc(Cl)c4nc3n2)cc1`, the 50% inhibitory concentration (IC50) with HL-60 [1] came to 25.7 µM; in the series with HL-60 [5], 36.2 µM. The inhibition at 50 µM worked out at 85.1% in the series on HL-60 [2] and 63.2% in the series on HL-60 [4]. In the series on HL-60 [3], the Activity is listed as 15.7%.

`Cc1ccc(-c2nc(N)c3nc4c(Cl)ccc(Cl)c4nc3n2)cc1F`: the IC50 in the series with HL-60 [1] worked out at 26.5 µM; in the series on HL-60 [5], 5.8 µM. The inhibition at 50 µM was found to be 93% in the series with HL-60 [2] and 80% with HL-60 [4]. This compound came in with an Activity in the series with HL-60 [3] of 1.8%.

Consider `Nc1nc(-c2cc(C(F)(F)F)cc(C(F)(F)F)c2)nc2nc3c(Cl)ccc(Cl)c3nc12`, for which the half-maximal inhibitory concentration (IC50) with HL-60 [1] worked out at 22.9 µM; with HL-60 [5], 7.3 µM. The inhibition at 50 µM in the series on HL-60 [2] was determined as 100%; with HL-60 [4], 99.7%. For the same compound, the Activity in the series with HL-60 [3] was 0%.
